{
  "source": "patent EP3263567A1",
  "about": "“CARBOXAMIDE-SUBSTITUTED PYRAZOLES AND TRI(HETERO)ARYL-PYRAZOLES FOR USE IN METHODS OF TREATING AND / OR PREVENTING CARDIOVASCULAR DISEASES AND / OR COMORBIDITIES THEREOF” (AiCuris Anti-infective Cures GmbH, priority 2016, dated 2018)",
  "key": {"[1]": {"test": "pKa of compound A", "format": "physicochemical"}, "[2]": {"test": "Solubility of compound A", "format": "physicochemical", "conditions": "for solubility: aqueous media"}, "[3]": {"test": "10-day dose-range-finding study in dogs", "format": "in vivo", "description": "For the dog study, single dose data are available at 3, 30 and 100 mg/kg and repeated dose data (10 days of treatment) are available at 30, 100 and 2 x 50 mg/kg. At a single dose of 30 mg/kg, no further increase in exposure or Cmax is apparent. In the 10-day DRF study (LPT Study No. 31586) it was investigated whether after multiple dosing any accumulation would be apparent and therefore dose levels of 30 and 100 mg/kg were selected in this study. In addition, the highest daily dose (i.e. 100 mg/kg) was also administered as 50 mg/kg twice daily (8-h interval) to investigate possible beneficial effects of BID dosing on overall exposure."}, "[4]": {"tested_on": "Beagle dogs", "test": "4-week beagle dog experiment, toxicity observations", "format": "in vivo", "description": "(§1) [drawing 93] i.e. 4-[5-[3-Chloro-5-(trifluoromethoxy)phenyl]-1-(pyridin-3-yl)-1H-pyrazol-3-yl]-5,6-dihydro-7H-pyrrolo[3,4-d]pyrimidin-7-one, was administered in a 4-week beagle dog experiment with integrated non-invasive telemetric electrocardiography (ECG) measurements for determining its cardiovascular effects; specifically its effects on the heart rate.\n(§2) 32 Beagle dogs (16 males and 16 females) with parameters in the normal range were tested for cardiovascular effects of Compound A administration and divided into the study groups indicated below.\nDuration of study: • 4 acclimatization weeks • 4 test weeks • 4 additional test weeks for the animals scheduled for the recovery period.\n(§3) The test compound A-formulation of the appropriate concentration was administered by oral administration at a constant administration volume/kg b.w.\n(§4) • Groups 1 and 4: Twice daily at an 8-hour interval for 28 consecutive days. • Groups 2 to 3: Once daily for 28 consecutive days.\nThe animals were observed individually before and after dosing at each time of dosing for any signs of behavioural changes, reaction to treatment or illness.\nKennel side observations included skin/fur, eyes, mucous membranes, respiratory and circulatory systems, somatomotor activity and behaviour patterns. The onset, intensity, and duration of any signs observed were recorded."}, "[5]": {"tested_on": "Beagle dogs", "test": "4-week beagle dog experiment, non-invasive telemetry (ECG, heart rate, blood pressure)", "format": "in vivo", "description": "as §1, §2, §3, §4\nTelemetry parameters were monitored at the following times: • Predose and in test week 4: All 32 animals included in this study. • At the end of the recovery period in test week 8: All 8 recovery animals.\nParameters were monitored telemetrically with the EMKA Technologies System continuously starting approximately 24 hours prior to the first treatment (baseline; pre-dose values) and for approximately 24 hours in test week 4 and at the end of the recovery period in test week 8. The dogs were habituated and trained for wearing the jackets equipped with the telemetry transmitter and air-filled cuff placed on their tail.\nThe following telemetry parameters were determined: • Peripheral arterial blood pressure in the tail (blood flow occlusion using an air filled cuff) • Heart rate • Electrocardiography (QRS, QT, PQ, RR) • Respiration (respiratory inductive plethysmography; belts were placed around the thorax and abdomen) • Skin temperature • Physical activity.\nThe report includes the data recorded at the following intervals: • Pre-dose: Every 4 hours after start of recording (7 (Baseline; approx. 24 hours) tracings per animal) • Test week 4: Approx. 0, 1, 2, 6, and 24 hours after (Start of treatment to 24 hours post the 1 st administration of the day treatment relating to first dosing of the day) • At the end of the recovery period in Every 4 hours after start of recording (7 test week 8: tracings per animal)\nThe electrocardiogram was visually assessed for any abnormalities of the electrical complexes (i.e. arrhythmias, interval prolongations). In addition, the following parameters were evaluated:\nFurthermore, the QTc-values were calculated according to the following Bazett-formula: QTc = (QT [sec])/(sqrt((R−R distance[sec]))) [formula]"}, "[6]": {"conditions": "3, 10 or 2 x 50 mg/kg b.w./day oral, test week 4"}},
  "note": "Entries after “also recorded” stand apart in the source; their conditions may differ.",
  "data": [
    {"smiles": "O=C1NCc2c1ncnc2-c1cc(-c2cc(Cl)cc(OC(F)(F)F)c2)n(-c2cccnc2)n1", "note": "[Compound A, 4-[5-[3-Chloro-5-(trifluoromethoxy)phenyl]-1-(pyridin-3-yl)-1H-pyrazol-3-yl]-5,6-dihydro-7H-pyrrolo[3,4-d]pyrimidin-7-one]", "values": [
      {"measurement": "pKa", "setting": "[1]", "result": 2.3},
      {"measurement": "solubility", "setting": "[2]; pH 7.4, aqueous buffer", "result": "50 to 70", "unit": "µg/mL"},
      {"measurement": "solubility", "setting": "[2]; simulated gastric fluid, pH 2.0", "result": 400, "unit": "µg/mL"},
      {"measurement": "Solubility (test item description)", "setting": "[2]; description of the batch used in Example 3", "result": "soluble in water"},
      {"measurement": "solubility in commonly used pharmaceutical excipients", "setting": "[2]; oils, cosolvents, surfactants", "result": "very low solubility"},
      {"measurement": "exposure on split dosing", "setting": "[3]; 100 mg/kg as 2 x 50 mg/kg 8 hours apart", "result": "small increase in exposure"},
      {"measurement": "test item related findings", "setting": "[3]; 30, 100 and 2 x 50 mg/kg, 10 days", "result": "No clear and consistent test item related findings"},
      {"measurement": "exposure on dose increase", "setting": "[3]; 30 to 100 mg/kg, 10 days", "result": "did not reveal a further increase in exposure"},
      {"measurement": "mortality", "setting": "[4]; 3, 10 or 2 x 50 mg/kg b.w./day for 4 weeks, treatment and recovery period", "result": "None"},
      {"measurement": "signs of systemic intolerance (behaviour, external appearance, faeces)", "setting": "[4]; 3, 10 or 2 x 50 mg/kg b.w./day oral for 4 weeks and 4-week recovery", "result": "No compound A-related signs of systemic intolerance"},
      {"measurement": "eyes and auditory acuity", "setting": "[4]; 4 weeks", "result": "No changes or adverse effects"},
      {"measurement": "haematology, clinical biochemistry, urinalysis, ophthamological and auditory examination, organ weights, bone marrow, histopathology", "setting": "[4]; 4 weeks", "result": "No compound A-related influences"},
      {"measurement": "macroscopic inspection at necropsy", "setting": "[4]; 4 weeks", "result": "did not reveal any morphological changes"},
      {"measurement": "histopathological examination", "setting": "[4]; end of main study and of 4-week recovery period", "result": "did not reveal any Compound A-related morphological changes"},
      {"measurement": "body weight and body weight gain; food and drinking water consumption", "setting": "[4]; treatment period", "result": "No compound A-related influence"},
      {"measurement": "start of telemetric changes after last administration", "setting": "[5]; 1st evaluated telemetric time-point, test week 4", "result": "≤ 5", "unit": "min"},
      {"measurement": "effect on QTc interval", "setting": "[5]; 3, 10 or 2 x 50 mg/kg b.w./day oral, 4 weeks", "result": "no adverse effects on QTc-interval; also recorded: no effect on QTc; also recorded: No influence"},
      {"measurement": "prolonged QT interval", "setting": "[5]; [6]", "result": "≤ 50", "unit": "%"},
      {"measurement": "prolonged RR interval", "setting": "[5]; [6]", "result": "≤ 140", "unit": "%"},
      {"measurement": "decreased heart rate", "setting": "[5]; 3, 10 or 2 x 50 mg/kg b.w./day oral, test week 4, compared to control group", "result": "≤ 50", "unit": "%"},
      {"measurement": "severe bradycardia or atrial fibrillation", "setting": "[5]; beagle dog study", "result": "no signs of too much slowing of the heart rate (severe bradycardia) nor atrial fibrillation"},
      {"measurement": "telemetric changes lasting until, after administration", "setting": "[5]; end of telemetric measurement, test week 4", "result": 24, "unit": "h"},
      {"measurement": "influence on systolic and diastolic blood pressures", "setting": "[5]; oral, 4 weeks", "result": "No influence"},
      {"measurement": "recovery of telemetric changes after 4-week treatment-free recovery period", "setting": "[5]; week 8, high dose group 2 x 50 mg/kg b.w./day", "result": "full recovery; also recorded: completely subsided"}
    ]}
  ]
}
